Data on two molecules can be found in patent publication US20050014735A1, “Treatment of Th2 dominated immunological disease states with progesterone receptor antagonists” (Solvay Pharmaceuticals GmbH, priority 2001, published 2005).

Test [1] relates to peripheral blood mononuclear cells (PBMC). As to the kind of experiment: Th1 and Th2 cytokine profiles produced by mitogen-stimulated PBMC (ELISA), ex vivo. Type of test: cell-based, human. How it is done: The effects of dydrogesterone on Th1 and Th2 cytokine profiles produced by mitogen-stimulated peripheral blood mononuclear cells (=PBMC) were determined. Several studies have pointed to a deviation of cytokine profiles in women when during pregnancy. Pregnancy is associated with a shift towards Th2 bias, evinced by changes in peripheral T cells, by cytokine production by peripheral lymphocytes and by cytokine changes at the maternal-fetal interface. Unexplained recurrent spontaneous abortion (URSA) seems to be associated with a stronger bias towards Th1 cytokines. Women who have earlier been gone through URSA may therefore be regarded as a pre-selected group of patients that will typically respond to an immunological stimulation by showing a Th1 dominated pattern of immune response. The pharmacological test was therefore performed with a suitable URSA group which comprised of women admitted with spontaneous abortion for evacuation, (i) who have had at least two previous unexplained miscarriages, (ii) who were currently undergoing at least a 3rd abortion and (iii) who had been fully investigated. The relationship between habitual abortion and cytokine production response in 54 women with normal pregnancy (and at least 3 previous normal pregnancies) and 23 women with a history of habitual abortion of unexplained aetiology (URSA group) has been investigated. Peripheral blood was obtained by venipuncture from the abortion group on the day of abortion. PBMC is separated by Ficoll-paque (Pharmacia Biotech, Sweden) density gradient centrifugation, suspended in RPMI medium (=“Roswell Park Memorial Institute”-medium; obtained from GIBCO/BRL, USA) containing 10% fetal calf serum, aliquoted into 96 well tissue culture plates at a density of 100.000 cells per well and then stimulated with the mitogen phytohemagglutinin (=PHA, Sigma Chemicals, USA) at a concentration of […] for a period of 96 hours, with autologous placental antigens or with trophoblast antigens. […] Progesterone was tested at concentrations of […]. RU486 was tested at equivalent concentrations. Culture supernatants were harvested at 96 hours for determination of the levels of cytokines secreted by the PBMC into the supernatants. Cytokine levels were determined in the supernatants by enzyme-linked immunosorbent assay (=ELISA). Each sample was tested in the following manner: • PBMC+mitogen • PBMC+mitogen+progesterone • PBMC+mitogen+progesterone+RU486 • PBMC+mitogen+dydrogesterone • PBMC+mitogen+dydrogesterone+RU486 • PBMC+mitogen+Carrier • PBMC+mitogen+Carrier+RU486 Th1 cytokines TNF-α and IFN-γ, and Th2 cytokines IL-4, IL-6 and IL-10 were evaluated in these samples by ELISA using kits that were obtained from Immunotech SA, France. These consisted of “sandwich ELISA”; briefly the first step leads to the capture of the relevant cytokine by monoclonal anti-cytokine antibodies bound to the wells of microtiter plates. In the second step, a second biotinylated monoclonal is added together with streptavidin-enzyme (peroxidase or alkaline phosphatase) conjugate. The biotinylated antibody binds to the solid phase antibody-antigen complex, and in turn, binds the conjugate. After incubation the wells are washed and the binding of the streptavidin-enzyme via biotin is followed by the addition of a chromogenic substrate. The intensity of the coloration produced is proportional to the concentration of the cytokine in the sample. Standard curves are plotted for each of the cytokines using reference recombinant cytokines and the results are read from these curves. The sensitivity of each of the assays is as follows: 5 pg/ml of TNF-α, 0.08 IU/ml of IFN-γ, 5 pg/ml of IL-4 and 5 pg/ml of IL-10. Results will be analysed by the t-test for independent samples.

Test [2] deals with Th1 cytokine production. The conditions noted are these: in vitro, women with recurrent pregnancy loss; cited from earlier work.
Where [3] appears, read: PBMC of women with spontaneous abortion and habitual abortion.
The mark [4] stands for this setting: PBMC supernatant, ELISA, 96 hours.

In the case of `CC(=O)[C@H]1CC[C@H]2[C@@H]3C=CC4=CC(=O)CC[C@@]4(C)[C@@H]3CC[C@]12C` [dydrogesterone], in test [1] (setting [3]), the “Th1/Th2 bias of cytokine profile” value was “shift from a Th1 towards a Th2 bias” and the activity of lymphocytes entry was “reduced”. Besides, in test [1] (setting [4]), the IFN-γ level result is “reduction”, the “Interleukin 4 level” value is reported as “marked increase” and the “Interleukin 6 level” value is “marked increase”. For the same molecule, in test [1] (women with spontaneous abortion and habitual abortion), the “release of progesterone induced blocking factor (PIBF)” value was “increased release”.

For `CC(=O)[C@H]1CC[C@H]2[C@@H]3CCC4=CC(=O)CC[C@]4(C)[C@H]3CC[C@]12C` [progesterone], in test [2], the “embryotoxic Th1 cytokine production to trophoblast” value is listed as “inhibits”.
